The values that follow come from ChEMBL document CHEMBL1201862, “PubChem BioAssay data set” (2004).

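Step 1: Grow cells in 96-well plates. Step 2: Expose to compound for 48 hours at 5 concentrations. Step 3: Interpolate endpoints linearly; if unreached, use highest concentration. Abbreviation: GI50, concentration required for 50% inhibition of growth.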 The source made the active and inactive calls. Rule as the data show it: active = GI50 up to about 1.1 µM and inactive = higher. Where only a bound is given, the exact number is not on record here.

Holding throughout (assay): growth of human tumour cells (NCI), 48 h
Test [1] relates to IGROV-1.
In test [2] the test system is A498.
For test [3], the system named is CCRF-CEM.
The test system of test [4] is A549.
The subject of test [5] is HOP-62.
In test [6] the test system is CAKI-1.
Test [7] deals with SN12C.
In test [8] the test system is K562.
For test [9], the system named is NCI/ADR-RES.
Test [10] relates to TK-10.
In test [11] the test system is RXF 393.
Test [12] has as its system 786-0.
Test [13] has as its system KM12.
Test [14] concerns HCT-116.
For test [15], the system named is M14.
Test [16] relates to LOX IMVI.
In test [17] the test system is MOLT-4.
Test [18] deals with UO-31.
Test [19] deals with UACC-62.
Test [20] has as its system SF-539.

As to `COc1cccc(-c2cc(O)c3cc(N4CCN(C)CC4)ccc3n2)c1`, the GI50 in test [1] was 3.2 µM (inactive); in test [2], 1.06 µM (active); in test [3] it was 0.986 µM (active); in test [4], 2.39 µM (inactive); in test [5] it was 1.64 µM (inactive); in test [6] it was 2.66 µM (inactive). For the same compound, the GI50 is 2.92 µM (inactive) in [7]; 0.628 µM (active) in [8]; 1.47 µM (inactive) in test [9]; 9.64 µM (inactive) in test [10]; 1.18 µM (inactive) in [11]; 2.96 µM (inactive) in [12]. The GI50 in [13] is 1.91 µM (inactive); in test [14], 0.543 µM (active); in test [15], 1.99 µM (inactive); in test [16] it was 1.73 µM (inactive); in test [17], 2.91 µM (inactive); in test [18], 6.9 µM (inactive). The GI50 in [19] was 1.28 µM (inactive); in test [20], 0.557 µM (active).
With `CC12CCC3c4ccc(O)cc4CCC3C1C/C(=N\O)C2O` (stereo not given), the GI50 in [1] was > 100 µM (inactive); in [2], > 100 µM (inactive); in [3], 42.7 µM (inactive); in test [4], > 100 µM (inactive); in test [5], > 100 µM (inactive); in test [6] it was > 100 µM (inactive). The GI50 in test [7] is > 100 µM (inactive); in [8] it was > 100 µM (inactive); in [9], > 100 µM (inactive); in test [10], 45.4 µM (inactive); in test [11] it was > 100 µM (inactive); in [12] it was > 100 µM (inactive). Moreover, the GI50 in test [13] is 99.5 µM (inactive); in [14], > 100 µM (inactive); in [15], > 100 µM (inactive); in test [16], > 100 µM (inactive); in test [17], > 100 µM (inactive); in test [18], > 100 µM (inactive). The GI50 was > 100 µM (inactive) in test [19] and 85.1 µM (inactive) in [20].
For `O=C(COC(=O)c1ccccc1)c1ccc(Br)cc1`, the GI50 is 1 µM (active) in [1]; 15.8 µM (inactive) in test [2]; 4.04 µM (inactive) in [3]; 17.2 µM (inactive) in test [4]; 18.5 µM (inactive) in test [5]; 1.47 µM (inactive) in test [6]. In addition, the GI50 in [7] is 10.4 µM (inactive); in [8], 4.4 µM (inactive); in [9] it was 21 µM (inactive); in test [10], 2.58 µM (inactive); in test [11] it was 2.75 µM (inactive); in test [12], 2.41 µM (inactive). Moreover, the GI50 is 15.7 µM (inactive) in test [13]; 8.95 µM (inactive) in [14]; 14.5 µM (inactive) in test [15]; 3.06 µM (inactive) in test [16]; 3.29 µM (inactive) in test [17]; 1.89 µM (inactive) in [18]. The GI50 in test [19] is 13 µM (inactive); in test [20], 15.1 µM (inactive).
On to `N#Cc1c(NCCc2ccc(F)cc2)c2ccccc2n2c1nc1ccccc12`, for which the GI50 in test [1] was 13.4 µM (inactive); in test [2], 21 µM (inactive); in test [3] it was > 100 µM (inactive); in test [4], 33.7 µM (inactive); in [5], 5.27 µM (inactive); in test [6], 9.84 µM (inactive). For the same compound, the GI50 in test [7] was 15.1 µM (inactive); in test [8], > 100 µM (inactive); in [9] it was 12.3 µM (inactive); in test [10], 12.5 µM (inactive); in test [11], 10.7 µM (inactive); in test [12], 4.46 µM (inactive). Moreover, the GI50 in test [13] was 23.2 µM (inactive); in [14] it was 19 µM (inactive); in test [15], 42 µM (inactive); in test [16], 14.1 µM (inactive); in test [17] it was > 100 µM (inactive); in test [18], 13.7 µM (inactive). Moreover, the GI50 in test [19] was 7.6 µM (inactive); in [20], 9.27 µM (inactive).
On to `O=C1/C(=C/c2cccc([N+](=O)[O-])c2)N=C(c2ccccc2)N1c1nc2c(Cl)cc(Cl)cc2s1`, for which the GI50 in test [1] was 23.2 µM (inactive); in [2] it was 18.7 µM (inactive); in test [3], 10.4 µM (inactive); in test [4], 21.1 µM (inactive); in test [5] it was 19.7 µM (inactive); in [6], 40.7 µM (inactive). Besides, the GI50 is 22.4 µM (inactive) in [7]; 31.1 µM (inactive) in test [8]; 28.4 µM (inactive) in [9]; 45.2 µM (inactive) in [10]; 27.9 µM (inactive) in test [11]; 31.4 µM (inactive) in test [12]. Moreover, the GI50 in [13] is 19.9 µM (inactive); in test [14], 19.5 µM (inactive); in test [15], 21.8 µM (inactive); in test [16] it was 16.4 µM (inactive); in test [17], 11.5 µM (inactive); in test [18] it was 21.8 µM (inactive). Moreover, the figures for the GI50 in test [19] and in test [20] were 29.2 µM (inactive) and 22.8 µM (inactive), respectively.
For `COC(=O)CC1(O)C(C=C(C)C)C(C(=O)OC)C(=O)C(C(=O)OC)C1C(=O)OC` (stereo not given), the GI50 in [1], in [2], in test [3], in test [4], in test [5] and in [6] was > 100 µM (inactive) in each case. Besides, the GI50 in test [7] was > 100 µM (inactive); in test [8], > 100 µM (inactive); in [9], 38.5 µM (inactive); in test [10], > 100 µM (inactive); in test [11], > 100 µM (inactive); in test [12] it was > 100 µM (inactive). For the same compound, the GI50 in [13], in test [14], in test [15], in test [16], in test [17] and in [18] was > 100 µM (inactive) each time. Also, the GI50 in test [19] and in test [20] was > 100 µM (inactive) each time.
With `CC[C@@H]1CC[C@@H]2[C@H](CC[C@]3(C)[C@@H](O)CC[C@@H]23)[C@H]1CO`, the GI50 in [1], in [2], in test [3], in test [4], in test [5] and in [6] was > 100 µM (inactive) in each case. Further, the GI50 was > 100 µM (inactive) in test [7]; 51.1 µM (inactive) in test [8]; 91.4 µM (inactive) in test [9]; > 100 µM (inactive) in test [10]; > 100 µM (inactive) in test [11]; > 100 µM (inactive) in test [12]. Besides, the GI50 is > 100 µM (inactive) in [13]; 95.7 µM (inactive) in test [14]; > 100 µM (inactive) in [15]; > 100 µM (inactive) in test [16]; 50 µM (inactive) in test [17]; > 100 µM (inactive) in test [18]. Further, the GI50 in test [19] is 79.8 µM (inactive); in test [20] it was > 100 µM (inactive).
Turning to `Nc1nc(Cl)cc(NCC2(CO)CCC(Cc3ccccc3)C2)n1` (stereo not given), the GI50 in test [1] is 26.5 µM (inactive); in test [2], 12.6 µM (inactive); in test [3] it was 6.68 µM (inactive); in test [4], 16.3 µM (inactive); in test [5] it was 32.7 µM (inactive); in test [6], 19.3 µM (inactive). In addition, the GI50 is 52.7 µM (inactive) in [7]; 1.21 µM (inactive) in [8]; 20.3 µM (inactive) in test [9]; 26 µM (inactive) in [10]; 28.5 µM (inactive) in test [11]; 27.7 µM (inactive) in [12]. The GI50 is 20.2 µM (inactive) in test [13]; 15.5 µM (inactive) in test [14]; 18.7 µM (inactive) in test [15]; 8.59 µM (inactive) in test [16]; 3.74 µM (inactive) in test [17]; 38.3 µM (inactive) in [18]. In addition, the values for the GI50 in [19] and in test [20] were 11.9 µM (inactive) and 29 µM (inactive), respectively.
As to `O=P1(Cc2ccccc2)c2ccccc2-c2ccccc21`, the GI50 was 2.33 µM (inactive) in test [1]; 7.85 µM (inactive) in [2]; 6.04 µM (inactive) in test [3]; 8.81 µM (inactive) in test [4]; 6.47 µM (inactive) in test [5]; 21.7 µM (inactive) in [6]. In addition, the GI50 in test [7] was 14.2 µM (inactive); in test [8] it was 1.41 µM (inactive); in test [9] it was > 100 µM (inactive); in test [10], 5 µM (inactive); in [11] it was 9.42 µM (inactive); in test [12] it was 7.94 µM (inactive). Moreover, the GI50 in test [13] was 1.08 µM (active); in test [14] it was 2.86 µM (inactive); in test [15], 3.67 µM (inactive); in test [16], 4.74 µM (inactive); in test [17], 7.29 µM (inactive); in test [18], 20.6 µM (inactive). Further, the GI50 in test [19] is 1.96 µM (inactive); in test [20], 6.21 µM (inactive).
`O=C(O)c1cc2c(s1)C(=O)c1sccc1C2=O`: the GI50 in [1] was 17.1 µM (inactive); in [2] it was 17.5 µM (inactive); in test [3], 6.84 µM (inactive); in test [4], 4.25 µM (inactive); in [5], 6.11 µM (inactive); in test [6] it was 12.4 µM (inactive). In addition, the GI50 in test [7] is 2.73 µM (inactive); in [8], 4.03 µM (inactive); in test [9] it was 5.4 µM (inactive); in [10], 20.1 µM (inactive); in test [11] it was 6.87 µM (inactive); in test [12] it was 8.34 µM (inactive). In addition, the GI50 is 8.07 µM (inactive) in test [13]; 2.22 µM (inactive) in [14]; 1.43 µM (inactive) in test [15]; 1.32 µM (inactive) in test [16]; 8.71 µM (inactive) in [17]; 5.98 µM (inactive) in [18]. The figures for the GI50 in test [19] and in [20] were 2.08 µM (inactive) and 1.95 µM (inactive), respectively.
